“And” between values parts separate entries of the source, which are not always exact repeats. Equal values may be shown once.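 How tested: cells in 96-well plates exposed to compound for 48 hours at five concentrations. At the GI50, growth is halved. Definition used: TGI = concentration required for complete inhibition of growth.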
Key:
Experiment in all cases: NCI-60 cell line screen, 48 h
SW-620 colon = system: SW-620 colon
MCF7 breast = system: MCF7 breast
RPMI-8226 leukemia = system: RPMI-8226 leukemia
OVCAR-5 ovarian = system: OVCAR-5 ovarian
NCI-H23 lung = system: NCI-H23 lung
MDA-MB-435 = system: MDA-MB-435
T-47D breast = system: T-47D breast
TK-10 renal = system: TK-10 renal
EKVX NSCLC = system: EKVX NSCLC
HS 578T breast = system: HS 578T breast
SN12C renal = system: SN12C renal
NCI/ADR-RES ovarian = system: NCI/ADR-RES ovarian
MALME-3M melanoma = system: MALME-3M melanoma
NCI-H460 lung = system: NCI-H460 lung
SR leukemia = system: SR leukemia
PC-3 prostate = system: PC-3 prostate
SNB-75 CNS = system: SNB-75 CNS
HCT-15 colon = system: HCT-15 colon
CCRF-CEM leukemia = system: CCRF-CEM leukemia
HCC-2998 colon = system: HCC-2998 colon
HL-60(TB) leukemia = system: HL-60(TB) leukemia
UO-31 renal = system: UO-31 renal
HOP-62 NSCLC = system: HOP-62 NSCLC
KM12 colon = system: KM12 colon
SF-295 CNS = system: SF-295 CNS
ACHN renal = system: ACHN renal
K-562 leukemia = system: K-562 leukemia
NCI-H226 lung = system: NCI-H226 lung
SF-539 CNS = system: SF-539 CNS
SK-OV-3 ovarian = system: SK-OV-3 ovarian
SK-MEL-5 melanoma = system: SK-MEL-5 melanoma
IGROV1 ovarian = system: IGROV1 ovarian
BT-549 breast = system: BT-549 breast
786-0 renal = system: 786-0 renal
MOLT-4 leukemia = system: MOLT-4 leukemia
UACC-257 melanoma = system: UACC-257 melanoma
NCI-H522 lung = system: NCI-H522 lung
SK-MEL-28 melanoma = system: SK-MEL-28 melanoma
OVCAR-4 ovarian = system: OVCAR-4 ovarian
SK-MEL-2 melanoma = system: SK-MEL-2 melanoma
A549 NSCLC = system: A549 NSCLC
DU-145 prostate = system: DU-145 prostate
U251 CNS = system: U251 CNS
SNB-19 CNS = system: SNB-19 CNS
UACC-62 melanoma = system: UACC-62 melanoma
HT29 colon = system: HT29 colon
HCT-116 colon = system: HCT-116 colon
LOX IMVI melanoma = system: LOX IMVI melanoma
HOP-92 NSCLC = system: HOP-92 NSCLC
M14 melanoma = system: M14 melanoma
OVCAR-8 ovarian = system: OVCAR-8 ovarian
SF-268 CNS = system: SF-268 CNS
MDA-MB-231 breast = system: MDA-MB-231 breast
OVCAR-3 ovarian = system: OVCAR-3 ovarian
COLO 205 colon = system: COLO 205 colon
CAKI-1 renal = system: CAKI-1 renal
RXF 393 renal = system: RXF 393 renal

COC(=O)[C@@H](C)C[C@H](Cc1ccccc1)NC(=O)c1cccc([C@@H](C[C@H](C(C)C)N(C)C(=O)[C@@H](NC(=O)[C@H]2CCCCN2C)C2CC2)OC(C)=O)n1
GI50 (SW-620 colon): 0.00333 µM | TGI (SW-620 colon): 33.3 µM and > 100 µM | GI50 (MCF7 breast): 0.00333 µM | TGI (MCF7 breast): 33.3 µM and > 100 µM | GI50 (RPMI-8226 leukemia): 0.00333 µM | TGI (RPMI-8226 leukemia): 7.63 µM and 55.6 µM | TGI (OVCAR-5 ovarian): 33.3 µM and > 100 µM | TGI (NCI-H23 lung): 33.3 µM and > 100 µM | TGI (MDA-MB-435): 0.0143 µM | GI50 (T-47D breast): > 33.3 µM | TGI (T-47D breast): > 33.3 µM | TGI (TK-10 renal): 33.3 µM and > 100 µM | TGI (EKVX NSCLC): 33.3 µM and > 100 µM | TGI (HS 578T breast): 33.3 µM and > 100 µM | TGI (SN12C renal): 33.3 µM and > 100 µM | GI50 (NCI/ADR-RES ovarian): 5.06 µM and 4.67 µM | TGI (NCI/ADR-RES ovarian): 33.3 µM and > 100 µM | TGI (MALME-3M melanoma): 33.3 µM and > 100 µM | GI50 (NCI-H460 lung): 0.00333 µM and 0.0297 µM | TGI (NCI-H460 lung): 33.3 µM and > 100 µM | GI50 (SR leukemia): 0.00333 µM | TGI (SR leukemia): 33.3 µM and 69.9 µM | GI50 (PC-3 prostate): 0.00333 µM and 0.0223 µM | TGI (PC-3 prostate): 33.3 µM and > 100 µM | TGI (SNB-75 CNS): 33.3 µM and > 100 µM | TGI (HCT-15 colon): 20.6 µM and > 100 µM | GI50 (CCRF-CEM leukemia): 0.00333 µM and 0.0234 µM | TGI (CCRF-CEM leukemia): 33.3 µM and > 100 µM | TGI (HCC-2998 colon): 33.3 µM and > 100 µM | TGI (HL-60(TB) leukemia): 0.0111 µM | GI50 (UO-31 renal): 0.0766 µM | TGI (UO-31 renal): 33.3 µM | GI50 (HOP-62 NSCLC): 0.00333 µM and 0.0296 µM | GI50 (KM12 colon): 0.00333 µM and 0.0298 µM | TGI (KM12 colon): 33.3 µM and > 100 µM | GI50 (SF-295 CNS): 0.0363 µM | TGI (SF-295 CNS): > 100 µM | TGI (ACHN renal): 33.3 µM and > 100 µM | GI50 (K-562 leukemia): 0.00333 µM | TGI (K-562 leukemia): 33.3 µM and > 100 µM | TGI (NCI-H226 lung): 33.3 µM and > 100 µM | GI50 (SF-539 CNS): 0.02 µM | TGI (SF-539 CNS): 0.0764 µM | GI50 (SK-OV-3 ovarian): 0.00333 µM and 0.0265 µM | TGI (SK-OV-3 ovarian): 33.3 µM and > 100 µM | TGI (SK-MEL-5 melanoma): 1.14 µM | GI50 (IGROV1 ovarian): 0.00333 µM | TGI (IGROV1 ovarian): 33.3 µM and > 100 µM | GI50 (BT-549 breast): 0.00333 µM | TGI (786-0 renal): 11.3 µM and > 100 µM | TGI (MOLT-4 leukemia): 33.3 µM and > 100 µM | GI50 (UACC-257 melanoma): > 100 µM | TGI (UACC-257 melanoma): > 100 µM | TGI (NCI-H522 lung): 37.3 µM | GI50 (SK-MEL-28 melanoma): 5.03 µM | TGI (SK-MEL-28 melanoma): 33.3 µM | TGI (OVCAR-4 ovarian): 33.3 µM and > 100 µM | GI50 (SK-MEL-2 melanoma): 0.00333 µM | TGI (SK-MEL-2 melanoma): 33.3 µM and > 100 µM | TGI (A549 NSCLC): 33.3 µM and > 100 µM | GI50 (DU-145 prostate): 0.00333 µM | TGI (DU-145 prostate): 33.3 µM and > 100 µM | TGI (U251 CNS): 33.3 µM and > 100 µM | GI50 (SNB-19 CNS): 0.00333 µM | TGI (SNB-19 CNS): 33.3 µM and > 100 µM | GI50 (UACC-62 melanoma): 0.00333 µM | TGI (UACC-62 melanoma): 33.3 µM | GI50 (HT29 colon): 0.00333 µM | GI50 (HCT-116 colon): 0.00333 µM | TGI (HCT-116 colon): 3.98 µM and 14.4 µM | GI50 (LOX IMVI melanoma): 0.00333 µM and 0.019 µM | TGI (LOX IMVI melanoma): 33.3 µM and > 100 µM | TGI (HOP-92 NSCLC): 13.6 µM and 86.6 µM | TGI (M14 melanoma): 0.0358 µM | TGI (OVCAR-8 ovarian): 33.3 µM and > 100 µM | TGI (SF-268 CNS): 33.3 µM and > 100 µM | GI50 (MDA-MB-231 breast): 0.00333 µM and 0.0281 µM | TGI (MDA-MB-231 breast): 4.35 µM and 24 µM

Oc1ccc(Nc2nc3ccccc3c3occc23)cc1
GI50 (SW-620 colon): 19.7 µM | TGI (SW-620 colon): 50.5 µM | GI50 (MCF7 breast): 11.5 µM | TGI (MCF7 breast): 44.4 µM | GI50 (RPMI-8226 leukemia): 7.63 µM | TGI (RPMI-8226 leukemia): 72.6 µM | GI50 (OVCAR-3 ovarian): 5.8 µM | TGI (OVCAR-3 ovarian): 22.8 µM | GI50 (OVCAR-5 ovarian): 15.6 µM | TGI (OVCAR-5 ovarian): 38.3 µM | GI50 (COLO 205 colon): 18.9 µM | TGI (COLO 205 colon): 50.1 µM | GI50 (NCI-H23 lung): 12.4 µM | TGI (NCI-H23 lung): 28.5 µM | GI50 (MDA-MB-435): 9.77 µM | TGI (MDA-MB-435): 21.6 µM | GI50 (T-47D breast): 17 µM | TGI (T-47D breast): 51.2 µM | GI50 (TK-10 renal): 13 µM | TGI (TK-10 renal): 27.1 µM | GI50 (EKVX NSCLC): 14.5 µM | TGI (EKVX NSCLC): 39.2 µM | GI50 (HS 578T breast): 16.5 µM | TGI (HS 578T breast): 45.4 µM | GI50 (SN12C renal): 12.2 µM | TGI (SN12C renal): 26.5 µM | GI50 (NCI/ADR-RES ovarian): 16.2 µM | TGI (NCI/ADR-RES ovarian): 31.5 µM | GI50 (NCI-H460 lung): 12.6 µM | TGI (NCI-H460 lung): 36.1 µM | GI50 (SR leukemia): 31.4 µM | TGI (SR leukemia): > 100 µM | GI50 (PC-3 prostate): 16.1 µM | TGI (PC-3 prostate): 66.4 µM | GI50 (HCT-15 colon): 14.3 µM | TGI (HCT-15 colon): 40.5 µM | GI50 (HCC-2998 colon): 11.4 µM | TGI (HCC-2998 colon): 23.7 µM | GI50 (HL-60(TB) leukemia): 10.2 µM | TGI (HL-60(TB) leukemia): > 100 µM | GI50 (UO-31 renal): 10.1 µM | TGI (UO-31 renal): 33.3 µM | GI50 (HOP-62 NSCLC): 16.9 µM | TGI (HOP-62 NSCLC): > 100 µM | GI50 (KM12 colon): 15.5 µM | TGI (KM12 colon): 38.6 µM | GI50 (SF-295 CNS): 11 µM | TGI (SF-295 CNS): 23.9 µM | GI50 (ACHN renal): 4.54 µM | TGI (ACHN renal): 29.4 µM | GI50 (K-562 leukemia): 9.84 µM | TGI (K-562 leukemia): > 100 µM | GI50 (CAKI-1 renal): 12.1 µM | TGI (CAKI-1 renal): 28.1 µM | GI50 (SF-539 CNS): 16.5 µM | TGI (SF-539 CNS): 33.7 µM | GI50 (SK-OV-3 ovarian): 16.2 µM | TGI (SK-OV-3 ovarian): 33.7 µM | GI50 (SK-MEL-5 melanoma): 8.15 µM | TGI (SK-MEL-5 melanoma): 21.9 µM | GI50 (IGROV1 ovarian): 2.93 µM | TGI (IGROV1 ovarian): 23.5 µM | GI50 (BT-549 breast): 6.72 µM | TGI (BT-549 breast): 34.6 µM | GI50 (786-0 renal): 12.2 µM | TGI (786-0 renal): 26.8 µM | GI50 (UACC-257 melanoma): 12.9 µM | TGI (UACC-257 melanoma): 30.7 µM | GI50 (NCI-H522 lung): 9.03 µM | TGI (NCI-H522 lung): 26.1 µM | GI50 (SK-MEL-28 melanoma): 17.6 µM | TGI (SK-MEL-28 melanoma): 45.6 µM | GI50 (OVCAR-4 ovarian): 12.3 µM | TGI (OVCAR-4 ovarian): 98.9 µM | GI50 (RXF 393 renal): 11.3 µM | TGI (RXF 393 renal): 41.3 µM | GI50 (SK-MEL-2 melanoma): 18.2 µM | TGI (SK-MEL-2 melanoma): 42.1 µM | GI50 (A549 NSCLC): 14.4 µM | TGI (A549 NSCLC): 52.1 µM | GI50 (DU-145 prostate): 11.3 µM | TGI (DU-145 prostate): 23.4 µM | GI50 (U251 CNS): 11.3 µM | TGI (U251 CNS): 26.1 µM | GI50 (SNB-19 CNS): 17.2 µM | TGI (SNB-19 CNS): 50.5 µM | GI50 (UACC-62 melanoma): 11.7 µM | TGI (UACC-62 melanoma): 23.9 µM | GI50 (HCT-116 colon): 16.3 µM | TGI (HCT-116 colon): 34.5 µM | GI50 (LOX IMVI melanoma): 2.21 µM | TGI (LOX IMVI melanoma): 15.9 µM | GI50 (HOP-92 NSCLC): 13.9 µM | TGI (HOP-92 NSCLC): 32 µM | GI50 (M14 melanoma): 14.2 µM | TGI (M14 melanoma): 34.6 µM | GI50 (OVCAR-8 ovarian): 17.1 µM | TGI (OVCAR-8 ovarian): 58.8 µM | GI50 (SF-268 CNS): 11.4 µM | TGI (SF-268 CNS): 31.6 µM | GI50 (MDA-MB-231 breast): 5.34 µM | TGI (MDA-MB-231 breast): 25.7 µM
